Legend:
[1] = cited from earlier work
[2] = design: species or system patients; settings: human, in vivo, 24 weeks
Protocol: NT-proBNP was measured in baseline serum samples from 433 patients entering a prospective study, designed primarily to define the therapeutic effect of a novel metallo-proteinase inhibitor in osteoarthritis (OA). Cardiovascular adverse events (CV-AEs) were monitored and related to the concomitant use of cox-2 inhibitors or NSAIDs or prostaglandin metabolism influencing steroids. In a retrospective analysis the question was evaluated whether CV AEs in patients receiving anti-inflammatory drugs could have been predicted from elevated NT-proBNP values. […]
Permitted rescue anti-inflammatory drugs including cox-2 inhibitors and NSAIDs or steroids for this trial were aspirin, diclofenac sodium, diflunisal, etodolac, fenoprofen, ibuprofen, ketoprofen, naproxen, nabumetone, oxaprozin, piroxicam, sodium salicylate, choline magnesium salicylate, celecoxib, rofecoxib or tolmetin. […] Patients were not enquired actively for the occurrence of angina pectoris, signs or symptoms of congestive heart failure, or arterial hypertension, nor was the ECG routinely evaluated for the occurrence of new Q-waves or new bundle branch block. […]

[3] = cited from earlier work; remark: listed apart in the source
[4] = 48 hours at room temperature or at 4° Celsius; cited from earlier work

Molecule: CS(=O)(=O)c1ccc(C2=C(c3ccccc3)C(=O)OC2)cc1 [Rofecoxib]
- additional cardiovascular incidents (myocardial infarction, stroke) ([1]; 25 mg compared with placebo, after 18 months of follow-up): 16 per 1,000 treated patients
- blood pressure levels ([1]; 25 mg versus placebo, early post-observation phase): higher blood pressure levels
- rise in the rate of serious thromboembolic incidents ([1]; APPROVE study): 3.9 times

Molecule: CC(=O)Nc1ccc(O)cc1 [acetaminophen]
- Hazard Ratio of covariate (takes drug at baseline), time to CV adverse events [2]: 0.653

Molecule: BNP: active natriuretic hormone of 32 amino acids, cleaved from proBNP
- in-vivo half-life ([3]; in vivo): 0.333 h
- concentration loss on storage [4]: at least 20%

B1: NT-proBNP: N-terminal pro peptide of 76 amino acids, cleaved from proBNP; inactive counterpart of BNP (protein, UniProt P16860 27-102, looked up)
NT-proBNP: HPLGSPGSASDLETSGLQEQRNHLQGKLSELQVEQTSLEPLQESPRPTGVWKSREVATEGIRGHRKMVLYTLRAPR
modifications: NT-proBNP
- in-vivo half-life, longer than that of BNP ([3]; difference to BNP): 2 h

— patent US7432107B2, “Cardiac hormones for assessing cardiovascular risk” (Roche Diagnostics Operations, Inc., priority 2005, dated 2008)
